We go through four compounds from patent US20260364186A1, “Chemical Conjugates, Compositions, and Methods of Preparation and Use Thereof” (Transfection Holdings Limited, priority 2022, published 2026).

Data set [1] relates to NZM011, NZM009, NZM012, NZM022 and NZM077 cells. Put plainly: Flow cytometry uptake into metastatic melanoma lines (Example 11). It counts as cell-based, human. The note with it: 200 nM, 30 minutes, five cell lines. On the procedure: FIG. 11: Uptake for compounds 124, 126, and 132 at 200 nM and 30 minute incubation with melanoma cell lines: NZM12 (NZM012) (BRAF V600E mutant metastatic melanoma, homozygous deletion CDKN2A and low invasive cell line), NZM77 (NZM077) (BRAF V600E mutant metastatic melanoma and missense NF1), NZM22 (NZM022) (BRAF G466A mutant metastatic melanoma, P53 241S/T mutant, NF1 non-frameshift insertion and PTEN epigenetic silencing). NZM9 (NZM009) (P53 179C/T mutant and homozygous silencing CDKN2A). NZM11 (NZM011) (BRAF V600E mutant metastatic melanoma and homozygous deletion CDKN2A), as positive control. Mean fluorescent intensities (MFI). 1,500-2,000 cells were obtained. Bars represent mean±SD. Results are from a single experiment done in triplicate. Cells were analysed by FACS.
Methods: For screening, NZM011, NZM009, NZM012, NZM022 and NZM077 cells were suspended at 250 cells per μL in MEMα media and 200 μL was dispensed into 96 well plates. The cells were left to settle for 24 hours for NZM011, NZM012 and NZM077 and 48 hours for NZM009 and NZM022 at 37 °C, 5% O2, 5% CO2. Before addition to the cells, 10 μL of 10 mM stock solutions in DMSO of compounds 124, 126, and 132 were diluted with 1% FBS MEMα media to give a 200 nM solution.
After the appropriate settle time, the media was removed from the 96 well plates and 200 μL of 200 nM conjugate solutions and DMSO control were dispensed to each well (in triplicate) and incubated for 30 minutes at 37 °C, 5% O2, 5% CO2. After 30 minutes, the media was removed and cells washed with PBS. Next, 100 μL of TrypLE trypsin (ThermoFisher Scientific) was added to each well and incubated for 5 minutes at 37 °C. After this, 150 μL of MEMα media (plus 1% FBS for NZM011, NZM012 and NZM077; plus 5% FBS for NZM009 and NZM022) were added. Cells were analysed by flow cytometry using a FACS biosort and FITC filter. Flow cytometry results represent the mean of the fluorescence intensities (in arbitrary units) measured for cells sorted in every sample.

Data set [2] concerns mouse embryonic fibroblasts MEF. Put plainly: FACS uptake of BODIPY FL conjugates (Example 4). The note with it: 200 nM, 5 min, S enantiomer vs R. The class given is cell-based. On the procedure: FIG. 4B: Conjugate compounds coupled to BODIPY FL were tested for uptake using 200 nM each conjugate and 5 minute incubation with mouse embryonic fibroblasts MEF. Mean fluorescent intensities (MFI). 1,000 cells were sorted by FACS.
Fibroblasts are ubiquitous mesenchymal cells that are thought to play important roles in wound repair and healing, and serve as reservoirs of multipotent progenitors capable of repopulating depleted cell compartments. Primary mouse embryonic fibroblast (MEF) cultures consist of highly heterogeneous populations of distinct cell types. Singhal, P. K., et al., 2016. MEF cells have a limited growth capacity and on prolonged passaging spontaneously immortalize at a low frequency. In contrast to transformation of primary MEF cells that requires the presence of two cooperating oncogenes, immortalised MEF cells can be transformed by a single oncogene (Ras) resulting in a loss of contact inhibition, anchorage-independent growth, and tumour formation in nude mice. Studies of MEF cells have played an important role in the elucidation of the molecular mechanisms underlying cellular immortalization, transformation, and tumorigenesis. Additionally, utilization of MEF cells disrupted for specific genes has provided a powerful tool to analyse the genetic regulation of these cellular processes. Sun and Taneja, 2007. […]

A further data set relates to Jurkat cells. Put plainly: Flow cytometry time course of uptake (Example 12). The note with it: 200 nM. The class given is cell-based, human. On the procedure:
FIG. 12: Time course of uptake for compounds 124, 126, and 132 at 200 nM after 5, 30 or 60 minute incubation with Jurkat cells. Mean fluorescent intensities (MFI). 1,000 cells were sorted by FACS. Bars represent mean±SD. Results represents a single experiment done in triplicate.
Materials and methods: For this study, 7.7×10^5 Jurkat cells were centrifuged for 5 minutes at 2500 RPM. The supernatant was removed and the cells were diluted in RPMI media (supplemented with 1% FBS+1% penicillin-streptomycin) to 400 cells/μL. Next, 28 μL of 100 μM stock solutions from compound 124, 126, or 132 were diluted with 6972 μL of RPMI media (supplemented with 1% FBS+1% penicillin-streptomycin) to give a 400 nM solution. Following this, 250 μL of conjugate solutions (giving a 200 nM final concentration) and 250 μL of cell suspensions were then added to each well in a 96 well plate. In addition, 250 μL of media only was added to the DMSO control wells. Incubation was carried out for 5, 30 and 60 minutes at 37 °C in triplicate wells for each compound and time point.
After incubation, cells were centrifuged for 1.5 minutes at 5000 RCF. Supernatant was removed and the cell pellet re-suspended in 200 μL fresh RPMI media, transferred to 96 well-plate and each cell suspension analysed by flow cytometry. Flow cytometry results represent the mean of the fluorescence intensities (in arbitrary units) measured for cells sorted in every sample.

Data set [3] deals with NZM11 melanoma cancer cell line. Put plainly: FACS uptake of BODIPY FL conjugates, 50 nM, 5 min (Example 1). It counts as cell-based, human. The method, then: FIG. 1. Conjugate compounds coupled to BODIPY FL were tested for uptake using 50 nM each conjugate and 5 minute incubation with HEM (human epidermal melanocytes) and melanoma cell line NZM11 (BRAF V600E mutant metastatic melanoma). Mean fluorescent intensities (MFI). For these tests, n=300-500, mean±SD. Results were from a single experiment done in triplicate. Cells were sorted by FACS.
Materials and methods: NZM11 is an adherent metastatic melanoma cell derived from a patient with a subcutaneous lesion on their mid back. This human metastatic melanoma is identified with code CBA-1398 from Cell bank Australia. […] Cells of NZM11 diluted in MEMα media and cells of HEMnDP (primary melanocyte cell line) diluted in media 254 were left to settle in 96-wells microplate for 48 hours. 10 μL of 10 mM stock solutions in DMSO from 138 and pantothenic acid/pantothenic acid derivatives coupled to BODIPY were diluted with HBSS to afford 100 nM solution. Then, 100 nM compounds and DMSO solutions were diluted 1:1 with MEMα media for NZM11 and media 254 for HEMnDP to afford 50 nM solutions. After the 48 hour settle time, media was removed from the cells and 200 μL of 50 nM media solutions were poured to each well and incubated for 5 minutes at 37 °C. […] The FACS results output represented the mean of the fluorescence intensities (in arbitrary units) measured for cells sorted in every sample

For the next data set, the system named is astrocytes. Put plainly: Protein content after 48 hour incubation (Example 9). It counts as cell-based, human. The note with it: 5, 25 and 100 μM. The method, then: (§1) Glioblastoma cells were used to determine viability and growth by measurement of protein levels. Protein content of glioblastoma cells was determined after 48 hour incubation with compound 138 or PA at 5, 25 and 100 μM final concentration. For To, protein levels were determined at the start of the test (before addition of test compounds). For the control, protein levels were determined for cells incubated for 48 hours in the absence of the test compounds. Astrocytes were used as a non-cancer cell line control. U87: this cell line has epithelial morphology that was isolated from malignant gliomas from a patient, likely with glioblastoma. SF188: this glioblastoma cell line was derived from the left temporal lobe tumour of a patient. U251: this cell line expresses epidermal growth factor receptor (EGFR) receptors, for inhibition studies. LN229: This cell line has a mutation on TP53; Simple; p.Pro98Leu. LN18: This cell line is negative for glial fibrillary acidic proteins and S100 (S-100) protein. […] GUVW cells were also utilised.

For another data set, the system named is glioblastoma cells. The data set is described as above. The class given is cell-based, human. The note with it: 5, 25 and 100 μM. On the procedure:
FIGS. 10A-10B: Protein content of glioblastoma cells after 48 hour incubation with compound 138 or PA at 5, 25 and 100 μM final concentration. To indicates protein levels at the beginning of the test. Control indicates protein levels in cells which were incubated for 48 hours without exposure to 138 or PA.
as §1

Data set [4] concerns NZM11 (BRAF V600E mutant metastatic melanoma) cells. Put plainly: Sulforhodamine B (SRB) assay of viability / proliferation, auranofin conjugates (Example 8). The following applies: 200 μM, 48 hours. It counts as cell-based, human. On the procedure: FIG. 8: Effect of 136 and 137 (auranofin conjugates) on viability of NZM11 melanoma cells. Cells were incubated with 136 and 137 at 10 μM final concentration and kept at 37 °C for 48 hours. Pantothenic acid (PA), CJ-15,801, and biotin were tested at 200 μM final concentration. […] Two batches of auranofin were tested at 10 μM final concentration.
FIG. 9: The viability data from FIG. 8 was normalised to the treatment plate and DMSO control and plotted as a percentage of cell growth. Individual data points represent technical replicates. Curve indicates non-linear regression slope, which allows determination of IC50 values.
Materials and methods: NZM11 cells were cultured in MEMα media with an initial count of 1020 cells/μL. The cells were then diluted to get 25 cells per μL and 200 μL of this suspension (5000 cells per well), dispensed into 96 well plates and left to settle for 24 hours. 10 mM stock solutions of 136, 137, and auranofin were diluted with 1% FBS MEMα media to give 10 nM, 30 nM, 100 nM, 300 nM, 1 μM, 3 μM, 10 μM, 30 μM and 100 μM solutions. After 24 hours the media was removed from the 96 well plates. To individual wells 200 μL of each dilution were dispensed in triplicate for three groups (136, 137, and auranofin): 1% FBS MEMα media only (DMSO control), 10 nM, 30 nM, 100 nM, 300 nM, 1 μM, 3 μM, 10 μM, 30 μM and 100 μM. The cells were incubated at 37 °C, 5% 02 and 5% CO2 for 48 hours.
In order to test the potency of 136 and 137, the IC50 values were calculated for these auranofin conjugates. For analysis of the treatment plate (Tz) a SRB assay was utilised. For this assay, 50 μL of 50% (w/v) ice-cold trichloroacetic acid (TCA) was added to each well. To achieve this, 5 g of TCA was made up to 10 mL with milliQ H2O. This was cooled on ice. Incubation was carried out for 1 hour at 4 °C to fix cells. TCA and media were removed from cells. Five milliQ washes were carried out and the plate was left to air dry. Next, 50 μL of 0.4% SRB solution (prepared in 1% acetic acid) was added to each well and incubated for 10 minutes at room temperature. The SRB solution was removed and five milliQ washes were carried out. Then, 100 μL of 10 mM Tris solution was added to each well, and the dye was solubilised. Absorbance at 515 nm was read on plate reader. Data was normalized to Tz plate, as per NCI60 screening method (https://dtp.cancer.gov/discovery_development/nci-60/methodology.htm).
Background: Sulforhodamine B stains cellular protein and so reports cell mass.

The test system of the next data set is melanoma cell lines. The note with it: previous results, read-out: concentration showing inhibition of 50% of the population; cited from earlier work.

“Also recorded” adds a separate entry of the source.

With `CC1=CC(C)=[N+]2C1=Cc1ccc(CCCn3cc(CCNC(=O)/C=C/NC(=O)[C@@H](O)C(C)(C)CO)nn3)n1[B-]2(F)F` [Compound 126, (E)-N-((((3-[4,4-Difluoro-5,7-dimethyl-4-bora-3a,4a-diaza-s-indacene-3-yl]propyl)-1H-1,2,3-triazol-4-yl)ethylamino)-3-oxoprop-1-enyl)-2,4-dihydroxy-3,3-dimethylbutanamide], in data set [1], the “times less uptake than 124” value is given as 5-12 times. Moreover, the “lower intensities than the R derivatives” value in data set [2] is given as “around 50%”. Also, the “time of highest uptake” value in the data set on Jurkat cells was 60 min. Also, in the data set with Jurkat cells (60 minutes), the “times lower than 124 uptake” value was found to be 4 times and the “uptake increase compared to DMSO control” value was “three times higher”. Further, the “mean intensity compared to the 124 conjugate” value in data set [3] is given as 25%.
With `CC(C)(CO)[C@@H](O)C(=O)NCCC(=O)O` [pantothenic acid], the “protein content / protein levels” value with astrocytes and with glioblastoma cells was “comparable content of proteins with the control; also recorded: little to no effect on protein levels” each time.
Take `CC(C)(CO)[C@@H](O)C(=O)N/C=C/C(=O)O` [Compound 138, (R,E)-3-(2,4-Dihydroxy-3,3-dimethylbutanamido)acrylic acid]: the “protein content / protein levels” value in the data set on astrocytes and in the data set on glioblastoma cells was “little to no effect on protein levels” throughout. Further, the “viability / cell proliferation” value in data set [4] is on record as “little to no effect on cell proliferation”.
Take `CC[P](CC)(CC)=[Au][S][C@@H]1O[C@H](COC(C)=O)[C@@H](OC(C)=O)[C@H](OC(C)=O)[C@H]1OC(C)=O` [auranofin]: in the data set on melanoma cell lines, the IC50 was no more than 500 nM.
